Measurements reported in patent US12180187B2, “1-phenyl-5-azinylpyrazolyl-3-oxyalkyl acids and their use for controlling unwanted plant growth” (BAYER AKTIENGESELLSCHAFT, priority 2019, dated 2024).

Tests used:
SETVI = assay: Post-emergence action against SETVI, 1.28 kg/ha; format: in vivo, Setaria viridis; conditions: dosage 1280 g/ha, visual rating about 3 weeks after treatment vs untreated controls
How it was run: (§1)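 Visual rating against untreated plants about 3 weeks after spraying gives % activity, where 0% means like controls and 100% means plants died. Plants were treated post-emergence at the one-leaf stage with compound formulated as wettable powder or emulsion concentrate, applied at 600 L water/ha plus 0.5% additive.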

VERPE [1] = assay: Post-emergence action against VERPE, 1.28 kg/ha; format: in vivo, Veronica persica; conditions: dosage 1280 g/ha, visual rating about 3 weeks after treatment vs untreated controls (100% = plants died)
How it was run: as §1

LOLRI [2] = assay: Post-emergence action against LOLRI, 1.28 kg/ha; format: in vivo, Lolium rigidum; conditions: dosage 1280 g/ha, visual rating about 3 weeks after treatment vs untreated controls
How it was run: as §1

AVEFA [3] = assay: Post-emergence action at 320 g/ha against AVEFA; format: in vivo; conditions: visual rating about 3 weeks after treatment vs untreated controls
How it was run: (§2)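 Activity is a visual rating against untreated controls, with 0% like control and 100% dead plants, made about 3 weeks after treatment. Plants grown in sandy loam in the greenhouse received a post-emergence spray at the one-leaf stage of 320 g/ha, formulated as WP or EC with 0.5% additive in 600 l/ha water.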

DIGSA [4] = assay: Post-emergence action at 320 g/ha against DIGSA; format: in vivo, Digitaria sanguinalis; conditions: dosage 320 g/ha, visual rating about 3 weeks after treatment vs untreated controls (100% = plants died)
How it was run: as §2

AMARE = assay: Post-emergence action against AMARE, 1.28 kg/ha; format: in vivo, Amaranthus retroflexus; conditions: dosage 1280 g/ha, visual rating about 3 weeks after treatment vs untreated controls (100% = plants died)
How it was run: as §1

VIOTR [5] = assay: Pre-emergence action at 320 g/ha against VIOTR; format: in vivo, Viola tricolor; conditions: dosage 320 g/ha
How it was run: (§3)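 Application: aqueous WP or EC with 0.5% additive on soil covering seeds, 600 l/ha. Read-out: visual percent damage after ~3 weeks in greenhouse, untreated pots as reference.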

VERPE [6] = assay: Pre-emergence action at 320 g/ha against VERPE; format: in vivo, Veronica persica; conditions: visual scoring after about 3 weeks vs untreated controls
How it was run: as §3

LOLRI [7] = assay: Pre-emergence action against LOLRI, 1280 g/ha; format: in vivo, Lolium rigidum; conditions: visual scoring after about 3 weeks vs untreated controls, 100% = plants have died, 0% = like control plants
How it was run: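 Compound applied as WP or EC in aqueous spray (0.5% additive, 600 L/ha) to the surface of sandy loam covering freshly sown seeds. After about 3 weeks under good greenhouse conditions, damage is given as visual percentage, 100% meaning plant death.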

LOLRI [8] = assay: Pre-emergence action at 320 g/ha against LOLRI; format: in vivo, Lolium rigidum; conditions: visual scoring after about 3 weeks vs untreated controls
How it was run: as §3

AVEFA [9] = assay: Pre-emergence action at 320 g/ha against AVEFA; format: in vivo; conditions: visual scoring after about 3 weeks vs untreated controls
How it was run: as §3

VIOTR [10] = assay: Post-emergence action at 320 g/ha against VIOTR; format: in vivo, Viola tricolor; conditions: visual rating about 3 weeks after treatment vs untreated controls
How it was run: as §2

DIGSA [11] = assay: Post-emergence action against DIGSA, 1.28 kg/ha; format: in vivo, Digitaria sanguinalis; conditions: dosage 1280 g/ha, visual rating about 3 weeks after treatment vs untreated controls
How it was run: as §1

ALOMY = assay: Post-emergence action against ALOMY, 1.28 kg/ha; format: in vivo, Alopecurus myosuroides; conditions: dosage 1280 g/ha, visual rating about 3 weeks after treatment vs untreated controls
How it was run: as §1

ECHGC = assay: Pre-emergence action at 320 g/ha against ECHGC; format: in vivo, Echinochloa crus-galli; conditions: visual scoring after about 3 weeks vs untreated controls
How it was run: as §3

| Structure (SMILES) | Post-emergence action against SETVI (SETVI) [%] | Post-emergence action against LOLRI (LOLRI [2]) [%] | Post-emergence action against AMARE (AMARE) [%] | Post-emergence action against VERPE (VERPE [1]) [%] | Post-emergence action against AVEFA in % (AVEFA [3]) [%] | Pre-emergence action against VIOTR in % (VIOTR [5]) [%] | Pre-emergence action against VERPE in % (VERPE [6]) [%] | Pre-emergence action against LOLRI (LOLRI [7]) [%] | Post-emergence action against DIGSA (DIGSA [11]) [%] | Pre-emergence action against LOLRI in % (LOLRI [8]) [%] | Post-emergence action against ALOMY (ALOMY) [%] | Pre-emergence action against ECHGC in % (ECHGC) [%] | Pre-emergence action against AVEFA in % (AVEFA [9]) [%] | Post-emergence action against VIOTR in % (VIOTR [10]) [%] | Post-emergence action at 320 g/ha against DIGSA in % (DIGSA [4]) [%] | also measured |
| --- | --- | --- | --- | --- | --- | --- | --- | --- | --- | --- | --- | --- | --- | --- | --- | --- |
| COC(=O)COc1nn(-c2ccccc2F)c(-c2cncnc2)c1Br [VI-004, Methyl {[4-bromo-1-(2-fluorophenyl)-5-(pyrimidin-5-yl)-1H-pyrazol-3-yl]oxy}acetate] | 90 | 100 | 100 | – | – | – | – | – | – | – | – | – | – | – | – | pest or weed control at 1280 g/ha (VERPE [1]; Veronica persica, 504 h): 90%; pest or weed control at 320 g/ha (AVEFA [3]; Avena fatua, 504 h): 100%; pest or weed control at 320 g/ha (DIGSA [4]; Digitaria sanguinalis, 504 h): 90%; pest or weed control at 320 g/ha (VIOTR [5]; Viola tricolor, 504 h): 100%; pest or weed control at 320 g/ha (VERPE [6]; Veronica persica, 504 h): 100%; pest or weed control at 1280 g/ha (LOLRI [7]; Lolium rigidum, 504 h): 100%; pest or weed control at 320 g/ha (LOLRI [8]; Lolium rigidum, 504 h): 90%; pest or weed control at 320 g/ha (AVEFA [9]; Avena fatua, 504 h): 90%; pest or weed control at 320 g/ha (VIOTR [10]; Viola tricolor, 504 h): 80% |
| C[C@@H](Oc1nn(-c2ccccc2F)c(-c2cncnc2)c1Br)C(=O)O [VI-012] | 90 | 90 | 90 | 90 | 90 | 100 | 100 | 100 | 90 | 90 | 100 | 80 | 80 | 100 | – | – |
| COC(=O)[C@@H](C)Oc1nn(-c2ccccc2)c(-c2cncnc2)c1Br [VI-013] | 90 | 90 | 90 | 100 | 80 | 100 | – | 100 | 90 | 90 | 100 | 90 | – | 90 | 90 | – |
| COC(=O)COc1nn(-c2ccccc2)c(-c2ccc(F)nc2)c1Br [VII-018] | 100 | 90 | – | 90 | 80 | 90 | 100 | 100 | 100 | 100 | 100 | 90 | 80 | 90 | – | – |
| COC(=O)C(C)Oc1nn(-c2ccccc2)c(-c2ccc(F)nc2)c1Br (stereo not drawn) [VII-026] | – | – | 90 | 100 | 80 | 100 | 80 | 90 | 100 | 80 | 100 | – | – | 90 | 90 | – |
| COCCOC(=O)COc1nn(-c2ccccc2F)c(-c2ccc(F)nc2)c1Br [VII-052] | 90 | – | 90 | 100 | 90 | 100 | 90 | 100 | 100 | 100 | 100 | 90 | 90 | 80 | 90 | – |
| CCOC(=O)C(C)Oc1nn(-c2ccccc2F)c(-c2ccc(F)nc2)c1I (stereo not drawn) [VII-057] | 100 | – | 100 | 90 | – | 100 | – | 100 | 100 | 90 | 100 | – | 90 | 80 | 90 | – |
| COC(=O)COc1nn(-c2cc(F)ccc2F)c(-c2ccc(F)nc2)c1Br [VII-089] | – | 100 | 90 | 90 | 80 | 100 | 100 | 100 | 100 | 100 | 100 | 80 | 90 | – | 90 | – |
| O=C(COc1nn(-c2ccccc2F)c(-c2ccc(F)nc2)c1Br)OCC1CCOC1 (stereo not drawn) [VII-091] | 90 | 100 | 90 | 100 | 80 | 100 | 100 | 100 | 100 | 100 | 100 | – | 90 | – | 90 | – |
